The values that follow are results of earlier work, collected in patent publication US8124639B2, “Bicyclic [3.1.0] heteroaryl amides as type 1 glycine transport inhibitors” (Pfizer Inc., priority 2005, dated 2012).

The subject of the data set is NMDA receptor. The settings on record: effect blocked by a specific NMDA-site antagonist and a glycine-site antagonist.

With `CN(CCC(Oc1ccc(-c2ccccc2)cc1)c1ccc(F)cc1)CC(=O)O` (stereo not shown) [NFPS], the “effect on postsynaptic current driven by the NMDA receptor” value is “increased the postsynaptic current driven by the NMDA receptor”.
